Earlier results, collected in EP0073093A1, “4' Halo-substituted sucrose derivatives” (TATE & LYLE PUBLIC LIMITED COMPANY, priority 1981, dated 1983).

Legend:
[1] = qualitative

O=C1NS(=O)(=O)c2ccccc21 [saccharin]
times the sweetening power of sucrose (relative to sucrose): about 200 times | after-taste [1]: unpleasantly bitter after-taste

2,6,1',6'-tetrachloro-2,6,1', 6'-tetradeoxy derivative
bittering power ([1]; comparable with that of quinine): potent bittering agent

2,1'-dichloro-2,1'- dideoxy derivative
sweetness (qualitative, prior-art sucrose derivatives): not sweet at all
